# Data published in US9849099B2, “Antimicrobial compounds, compositions and methods of use thereof” (WISCONSIN ALUMNI RESEARCH FOUNDATION, priority 2014, dated 2017).
# “Also recorded” adds a separate entry of the source. Where two headings read alike, the source gives them in different places.
# Legend:
# Type in all cases: cell-based
# E. coli BW25113 ΔtolC = assay: MIC micro-dilution; conditions: Escherichia coli, LB media, 37° C., 16-18 hours
# Experimental: (§1) Luria-Bertani (LB) media (10 g/L tryptone, 10 g/L NaCl, 5 g/L yeast extract, pH 7.0) was used to grow all bacterial strains, except Streptococcus pyogenes. Streptococcus pyogenes was grown in Mueller-Hinton broth containing 5% (v/v) sheep blood. All bacterial cultures were grown at 37° C. All the E. coli strains were grown while shaking at 200 rpm, while clinical pathogens were incubated without shaking.
# (§2) The MIC of all the strains was determined in LB media except Streptococcus pyogenes, which was grown in Mueller-Hinton media containing 5% (v/v) sheep blood. The micro-dilution method was utilized in 96-well clear flat-bottom plates (100 μL/well) according to the CLSI guidelines. All strains were grown at 37° C. for 16-18 hours in presence of various concentrations of compound. The MIC was determined by a visual inspection and experiments were performed in triplicate.
# E. coli BW25113 = assay: MIC micro-dilution; conditions: Escherichia coli, LB media, 37° C., 16-18 hours
# Experimental: as §1, §2
# Pseudomonas aeruginosa = assay: MIC micro-dilution
# Experimental: as §1, §2
# Morganella morganii = assay: MIC micro-dilution
# Experimental: as §1, §2
# Shigella boydii = assay: MIC micro-dilution; conditions: LB media, 37° C., 16-18 hours, read-out: MIC
# Experimental: as §1, §2
# Staphylococcus aureus = assay: MIC micro-dilution
# Experimental: as §1, §2
# Salmonella typhimurium = assay: MIC micro-dilution; conditions: Salmonella enterica
# Experimental: as §1, §2
# Enterobacter aerogenes = assay: MIC micro-dilution; conditions: Klebsiella aerogenes
# Experimental: as §1, §2
# Acinetobacter baumannii = assay: MIC micro-dilution
# Experimental: as §1, §2
# Vibrio cholerae = assay: MIC micro-dilution
# Experimental: as §1, §2
# Edwardsiella tarda = assay: MIC micro-dilution
# Experimental: as §1, §2
# Klebsiella pneumoniae = assay: MIC micro-dilution
# Experimental: as §1, §2
# [1] = tested on: broad panel of human pathogens; assay: MIC against the panel of pathogens; conditions: panel of pathogens
# Experimental: as §1, §2
# Bacillus subtilis 168 = assay: MIC micro-dilution
# Experimental: as §1, §2
# [2] = LB media, 37° C., 16-18 hours, read-out: MIC
# [3] = Salmonella typhimurium, LB media, 37° C., 16-18 hours, read-out: MIC
# [4] = Enterobacter aerogenes, LB media, 37° C., 16-18 hours, read-out: MIC
# [5] = Bacillus subtilis 168, LB media, 37° C., 16-18 hours, read-out: MIC
smiles,measurement,setting,value
NCCc1c[nH]c2ccc(O)cc12 [Compound 2],MIC,E. coli BW25113 ΔtolC,> 51 µg/mL
same,MIC,"E. coli BW25113; BW25113, E. coli BW25113",> 51 µg/mL
COc1ccc2[nH]cc(CCN)c2c1 [Compound 3],MIC,E. coli BW25113 ΔtolC,> 56 µg/mL
same,MIC,"E. coli BW25113; BW25113, E. coli BW25113",> 56 µg/mL
NCCc1c[nH]c2ccccc12 [Compound 4],MIC,E. coli BW25113 ΔtolC,> 61 µg/mL
same,MIC,"E. coli BW25113; BW25113, E. coli BW25113",> 61 µg/mL
Cc1[nH]c2ccc(O)cc2c1CCN [Compound 5],MIC,E. coli BW25113 ΔtolC,> 61 µg/mL
same,MIC,"E. coli BW25113; BW25113, E. coli BW25113",> 61 µg/mL
COc1ccc2c(CCN)c[nH]c2c1 [Compound 6],MIC,E. coli BW25113 ΔtolC,> 61 µg/mL
same,MIC,"E. coli BW25113; BW25113, E. coli BW25113",> 61 µg/mL
CCCCOc1ccc2[nH]cc(CCN)c2c1 [Compound 7],MIC,Pseudomonas aeruginosa,> 74 µg/mL
same,MIC,Morganella morganii,> 74 µg/mL
same,MIC,Shigella boydii,> 74 µg/mL
same,MIC,Staphylococcus aureus,> 74 µg/mL
same,MIC,E. coli BW25113 ΔtolC,> 74 µg/mL
same,MIC,Salmonella typhimurium; TYPHIMURIUM,> 74 µg/mL
same,MIC,Enterobacter aerogenes,> 74 µg/mL
same,MIC,Acinetobacter baumannii,> 74 µg/mL
same,MIC,Vibrio cholerae,> 74 µg/mL
same,MIC,Edwardsiella tarda,> 74 µg/mL
same,MIC,"E. coli BW25113; BW25113, E. coli BW25113",> 74 µg/mL
same,MIC,Klebsiella pneumoniae,> 74 µg/mL
CCCCCCOc1ccc2[nH]cc(CCN)c2c1 [Compound 8],MIC,Pseudomonas aeruginosa,> 83 µg/mL
same,MIC,Morganella morganii,> 83 µg/mL
same,MIC,Shigella boydii,42 µg/mL
same,MIC,Staphylococcus aureus,42 µg/mL
same,MIC,E. coli BW25113 ΔtolC,42 µg/mL
same,MIC,Salmonella typhimurium; TYPHIMURIUM,42 µg/mL
same,MIC,Enterobacter aerogenes,42 µg/mL
same,MIC,Acinetobacter baumannii,42 µg/mL
same,MIC,Vibrio cholerae,42 µg/mL
same,MIC,Edwardsiella tarda,42 µg/mL
same,MIC,"E. coli BW25113; BW25113, E. coli BW25113",42 µg/mL
same,MIC,Klebsiella pneumoniae,42 µg/mL
CCCCCCCCCCOc1ccc2[nH]cc(CCN)c2c1 [Compound 9],MICs compared with Compound 1,[1],either the same or 2-fold different from 1
same,MIC,Pseudomonas aeruginosa; [2],> 101 µg/mL
same,MIC,Morganella morganii; [2],> 101 µg/mL
same,MIC,Shigella boydii,3.2 µg/mL
same,MIC,Staphylococcus aureus; [2],6.3 µg/mL
same,MIC,E. coli BW25113 ΔtolC,3.2 µg/mL
same,MIC,Salmonella typhimurium; [3],6.3 µg/mL
same,MIC,Enterobacter aerogenes; [4],13 µg/mL
same,MIC,Acinetobacter baumannii; [2],6.3 µg/mL
same,MIC,Vibrio cholerae,6.3 µg/mL
same,MIC,Edwardsiella tarda; [2],25 µg/mL
same,MIC,"E. coli BW25113; E. coli BW25113, read-out: MIC",6.3 µg/mL
same,MIC,Klebsiella pneumoniae; [2],6.3 µg/mL
CC(C)CCCC(C)CCOc1ccc2[nH]cc(CCN)c2c1 (centres unmarked) [Compound 10],MICs compared with Compound 1,[1],either the same or 2× different from Compound 1; also recorded: either the same or 2-fold different from 1
same,MIC,Pseudomonas aeruginosa; [2],25 µg/mL
same,MIC,Morganella morganii; [2],> 101 µg/mL
same,MIC,Shigella boydii,6.3 µg/mL
same,MIC,Staphylococcus aureus; [2],6.3 µg/mL
same,MIC,E. coli BW25113 ΔtolC,3.2 µg/mL
same,MIC,Salmonella typhimurium; [3],6.3 µg/mL
same,MIC,Enterobacter aerogenes; [4],13 µg/mL
same,MIC,Acinetobacter baumannii; [2],13 µg/mL
same,MIC,Vibrio cholerae,6.3 µg/mL
same,MIC,Edwardsiella tarda; [2],25 µg/mL
same,MIC,"E. coli BW25113; E. coli BW25113, read-out: MIC",13 µg/mL
same,MIC,Klebsiella pneumoniae; [2],13 µg/mL
NCCc1c[nH]c2ccc(OCCCCCCCc3ccccc3)cc12 [Compound 11],MICs compared with Compound 1,[1],either the same or 2× different from Compound 1; also recorded: either the same or 2-fold different from 1
same,MIC,Pseudomonas aeruginosa; [2],56 µg/mL
same,MIC,Morganella morganii; [2],> 112 µg/mL
same,MIC,Shigella boydii,7 µg/mL
same,MIC,Staphylococcus aureus; [2],3.5 µg/mL
same,MIC,E. coli BW25113 ΔtolC,1.8 µg/mL
same,MIC,Salmonella typhimurium; [3],7 µg/mL
same,MIC,Enterobacter aerogenes; [4],14 µg/mL
same,MIC,Acinetobacter baumannii; [2],7 µg/mL
same,MIC,Vibrio cholerae,7 µg/mL
same,MIC,Edwardsiella tarda; [2],28 µg/mL
same,MIC,"E. coli BW25113; E. coli BW25113, read-out: MIC",14 µg/mL
same,MIC,Klebsiella pneumoniae; [2],7 µg/mL
CCCCCCCCCCCCCCCOc1ccc2[nH]cc(CCN)c2c1 [Compound 12],MIC,Pseudomonas aeruginosa,> 124 µg/mL
same,MIC,Morganella morganii,> 124 µg/mL
same,MIC,Shigella boydii,> 124 µg/mL
same,MIC,Staphylococcus aureus,> 124 µg/mL
same,MIC,E. coli BW25113 ΔtolC,> 124 µg/mL
same,MIC,Salmonella typhimurium; TYPHIMURIUM,> 124 µg/mL
same,MIC,Enterobacter aerogenes,> 124 µg/mL
same,MIC,Acinetobacter baumannii,> 124 µg/mL
same,MIC,Vibrio cholerae,> 124 µg/mL
same,MIC,Edwardsiella tarda,> 124 µg/mL
same,MIC,"E. coli BW25113; BW25113, E. coli BW25113",> 124 µg/mL
same,MIC,Klebsiella pneumoniae,> 124 µg/mL
CCCCCCCCCOc1ccc2[nH]cc(CCNC(=O)OC(C)C)c2c1 [Compound 13],MIC,Pseudomonas aeruginosa; [2],> 130 µg/mL
same,MIC,Morganella morganii; [2],> 130 µg/mL
same,MIC,Shigella boydii,> 130 µg/mL
same,MIC,Staphylococcus aureus; [2],> 130 µg/mL
same,MIC,E. coli BW25113 ΔtolC,> 130 µg/mL
same,MIC,Salmonella typhimurium; [3],> 130 µg/mL
same,MIC,Enterobacter aerogenes; [4],> 130 µg/mL
same,MIC,Acinetobacter baumannii; [2],> 130 µg/mL
same,MIC,Vibrio cholerae,> 130 µg/mL
same,MIC,Edwardsiella tarda; [2],> 130 µg/mL
same,MIC,"E. coli BW25113; E. coli BW25113, read-out: MIC",> 130 µg/mL
same,MIC,Klebsiella pneumoniae; [2],> 130 µg/mL
same,MIC,Bacillus subtilis 168; [5],> 130 µg/mL
CCCCCCCCCOc1ccc2[nH]ccc2c1 [Compound 14],MIC,Pseudomonas aeruginosa; [2],> 83 µg/mL
same,MIC,Morganella morganii; [2],> 83 µg/mL
same,MIC,Shigella boydii,> 83 µg/mL
same,MIC,Staphylococcus aureus; [2],> 83 µg/mL
same,MIC,E. coli BW25113 ΔtolC,> 83 µg/mL
same,MIC,Salmonella typhimurium; [3],> 83 µg/mL
same,MIC,Enterobacter aerogenes; [4],> 83 µg/mL
same,MIC,Acinetobacter baumannii; [2],> 83 µg/mL
same,MIC,Vibrio cholerae,> 83 µg/mL
same,MIC,Edwardsiella tarda; [2],> 83 µg/mL
same,MIC,"E. coli BW25113; E. coli BW25113, read-out: MIC",> 83 µg/mL
same,MIC,Klebsiella pneumoniae; [2],> 83 µg/mL
same,MIC,Bacillus subtilis 168; [5],> 83 µg/mL
CCCCCCCCCOc1ccc2[nH]cc(CC[N+](C)(C)C)c2c1 [Compound 15],MIC,Pseudomonas aeruginosa,52 µg/mL
same,MIC,Morganella morganii,> 104 µg/mL
same,MIC,Shigella boydii,26 µg/mL
same,MIC,Staphylococcus aureus,6.5 µg/mL
same,MIC,E. coli BW25113 ΔtolC,6.5 µg/mL
same,MIC,Salmonella typhimurium; TYPHIMURIUM,26 µg/mL
same,MIC,Enterobacter aerogenes,52 µg/mL
same,MIC,Acinetobacter baumannii,52 µg/mL
same,MIC,Vibrio cholerae,> 104 µg/mL
same,MIC,Edwardsiella tarda,26 µg/mL
same,MIC,"E. coli BW25113; BW25113, E. coli BW25113",52 µg/mL
same,MIC,Klebsiella pneumoniae,26 µg/mL
same,MIC,"Bacillus subtilis 168; Bacillus subtilis, 168",52 µg/mL
CCCCCCCCCOc1cccc(CCN)c1 [Compound 16],MIC,Pseudomonas aeruginosa,21 µg/mL
same,MIC,Morganella morganii,11 µg/mL
same,MIC,Shigella boydii,5.3 µg/mL
same,MIC,Staphylococcus aureus,5.3 µg/mL
same,MIC,E. coli BW25113 ΔtolC,2.6 µg/mL
same,MIC,Salmonella typhimurium; TYPHIMURIUM,5.3 µg/mL
same,MIC,Enterobacter aerogenes,5.3 µg/mL
same,MIC,Acinetobacter baumannii,5.3 µg/mL
same,MIC,Vibrio cholerae,5.3 µg/mL
same,MIC,Edwardsiella tarda,5.3 µg/mL
same,MIC,"E. coli BW25113; BW25113, E. coli BW25113",5.3 µg/mL
same,MIC,Klebsiella pneumoniae,5.3 µg/mL
same,MIC,"Bacillus subtilis 168; Bacillus subtilis, 168",0.66 µg/mL
CCCCCCCCCOc1ccc(CCN)cc1 [Compound 17],MIC,E. coli BW25113 ΔtolC,1.3 µg/mL
same,MIC,"E. coli BW25113; BW25113, E. coli BW25113",5.3 µg/mL
same,MIC,"Bacillus subtilis 168; Bacillus subtilis, 168",0.66 µg/mL
CCCCCCCCCOc1cccc(CN)c1 [Compound 18],MIC,E. coli BW25113 ΔtolC,4.7 µg/mL
same,MIC,"E. coli BW25113; E. coli BW25113, read-out: MIC",9.4 µg/mL
same,MIC,Bacillus subtilis 168; [5],4.7 µg/mL
CCCCCCCCCOc1cccc(N)c1 [Compound 19],MIC,E. coli BW25113 ΔtolC,10 µg/mL
same,MIC,"E. coli BW25113; E. coli BW25113, read-out: MIC",> 40 µg/mL
same,MIC,Bacillus subtilis 168; [5],40 µg/mL
